Laboratory results reported in ChEMBL document CHEMBL1134935, “Novel lopinavir analogues incorporating non-Aromatic P-1 side chains--synthesis and structure--activity relationships” (Bioorg Med Chem Lett, 2002).

Legend:
MT4 [1] = test: Antiviral activity against the cytopathic effects of HIV IIIB in MT-4 cells was assayed in the presence of 50% human serum; type: functional, cell-based
MT4 [2] = test: Cytotoxicity against MT-4 cells; type: functional, cell-based; details: Homo sapiens
[3] = biological target: Human immunodeficiency virus type 1 protease (Human immunodeficiency virus 1) (UniProt Q72874); test: Compound was tested for its inhibitory potency against HIV protease at 0.5 nM

SMILES: CCCC[C@@H](C[C@H](O)[C@H](Cc1ccccc1)NC(=O)COc1c(C)cccc1C)NC(=O)[C@H](C(C)C)N1CCCNC1=O
- EC50 (MT4 [1]): 920 nM
- IC50 (MT4 [2]): 32.9 µM
- inhibition [3]: 87%

SMILES: Cc1cccc(C)c1OCC(=O)N[C@@H](Cc1ccccc1)[C@@H](O)C[C@H](Cc1ccccc1)NC(=O)[C@H](C(C)C)N1CCCNC1=O [LOPINAVIR]
- EC50 (MT4 [1]): 100 nM
- IC50 (MT4 [2]): 17.8 µM
- inhibition [3]: 93%

SMILES: Cc1cccc(C)c1OCC(=O)N[C@@H](Cc1ccccc1)[C@@H](O)C[C@H](CCC(C)C)NC(=O)[C@H](C(C)C)N1CCCNC1=O
- EC50 (MT4 [1]): 340 nM
- IC50 (MT4 [2]): 18.7 µM
- inhibition [3]: 97%

SMILES: Cc1cccc(C)c1OCC(=O)N[C@@H](Cc1ccccc1)[C@@H](O)C[C@@H](NC(=O)[C@H](C(C)C)N1CCCNC1=O)C(C)C
- EC50 (MT4 [1]): 260 nM
- IC50 (MT4 [2]): 56.2 µM
- inhibition [3]: 93%

SMILES: CCC(CC)C[C@@H](C[C@H](O)[C@H](Cc1ccccc1)NC(=O)COc1c(C)cccc1C)NC(=O)[C@H](C(C)C)N1CCCNC1=O
- EC50 (MT4 [1]): 2800 nM
- IC50 (MT4 [2]): 17.8 µM
- inhibition [3]: 87%

SMILES: Cc1cccc(C)c1OCC(=O)N[C@@H](Cc1ccccc1)[C@@H](O)C[C@H](CC(C)C)NC(=O)[C@H](C(C)C)N1CCCNC1=O
- EC50 (MT4 [1]): 320 nM
- IC50 (MT4 [2]): 34.4 µM
- inhibition [3]: 64%
